#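 Values below derive from 48-hour exposures of cells grown in 96-well plates, with endpoints linearly interpolated between the two concentrations bracketing the appropriate inhibition level. TGI: total growth inhibition.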
# Experiments:
# Assay in all cases: DTP human tumour cell line panel, 48 h
# 786-0 renal = system: 786-0 renal
# A498 renal = system: A498 renal
# A549 NSCLC = system: A549 NSCLC
# ACHN renal = system: ACHN renal
# BT-549 breast = system: BT-549 breast
# CCRF-CEM leukemia = system: CCRF-CEM leukemia
# COLO 205 colon = system: COLO 205 colon
# DU-145 prostate = system: DU-145 prostate
# EKVX NSCLC = system: EKVX NSCLC
# HCC-2998 colon = system: HCC-2998 colon
# HCT-116 colon = system: HCT-116 colon
# HCT-15 colon = system: HCT-15 colon
# HL-60(TB) leukemia = system: HL-60(TB) leukemia
# HOP-62 NSCLC = system: HOP-62 NSCLC
# HOP-92 NSCLC = system: HOP-92 NSCLC
# HS 578T breast = system: HS 578T breast
# HT29 colon = system: HT29 colon
# IGROV1 ovarian = system: IGROV1 ovarian
# K-562 leukemia = system: K-562 leukemia
# KM12 colon = system: KM12 colon
# LOX IMVI melanoma = system: LOX IMVI melanoma
# M14 melanoma = system: M14 melanoma
# MCF7 breast = system: MCF7 breast
# MDA-MB-231 breast = system: MDA-MB-231 breast
# MDA-MB-435 = system: MDA-MB-435
# MDA-N = system: MDA-N
# MOLT-4 leukemia = system: MOLT-4 leukemia
# NCI-H226 lung = system: NCI-H226 lung
# NCI-H23 lung = system: NCI-H23 lung
# NCI-H522 lung = system: NCI-H522 lung
# NCI/ADR-RES ovarian = system: NCI/ADR-RES ovarian
# OVCAR-3 ovarian = system: OVCAR-3 ovarian
# OVCAR-5 ovarian = system: OVCAR-5 ovarian
# OVCAR-8 ovarian = system: OVCAR-8 ovarian
# PC-3 prostate = system: PC-3 prostate
# RPMI-8226 leukemia = system: RPMI-8226 leukemia
# RXF 393 renal = system: RXF 393 renal
# SF-268 CNS = system: SF-268 CNS
# SF-295 CNS = system: SF-295 CNS
# SF-539 CNS = system: SF-539 CNS
# SK-MEL-2 melanoma = system: SK-MEL-2 melanoma
# SK-MEL-5 melanoma = system: SK-MEL-5 melanoma
# SN12C renal = system: SN12C renal
# SNB-19 CNS = system: SNB-19 CNS
# SNB-75 CNS = system: SNB-75 CNS
# SR leukemia = system: SR leukemia
# SW-620 colon = system: SW-620 colon
# T-47D breast = system: T-47D breast
# TK-10 renal = system: TK-10 renal
# U251 CNS = system: U251 CNS
# UACC-257 melanoma = system: UACC-257 melanoma
# UACC-62 melanoma = system: UACC-62 melanoma
# UO-31 renal = system: UO-31 renal
# CAKI-1 renal = system: CAKI-1 renal
# NCI-H460 lung = system: NCI-H460 lung
# OVCAR-4 ovarian = system: OVCAR-4 ovarian
# SK-MEL-28 melanoma = system: SK-MEL-28 melanoma
structure (smiles),measurement,setting,value
O=C(O)CCC(NC(=O)c1ccc(Nc2nc3ccc(C(F)(F)F)cc3nc2C(=O)O)cc1)C(=O)O (stereo not given),TGI,786-0 renal,> 100 µM
same,TGI,A498 renal,> 100 µM
same,TGI,A549 NSCLC,> 100 µM
same,TGI,ACHN renal,> 100 µM
same,TGI,BT-549 breast,> 100 µM
same,TGI,CCRF-CEM leukemia,> 100 µM
same,TGI,COLO 205 colon,> 100 µM
same,TGI,DU-145 prostate,> 100 µM
same,TGI,EKVX NSCLC,> 100 µM
same,TGI,HCC-2998 colon,> 100 µM
same,TGI,HCT-116 colon,> 100 µM
same,TGI,HCT-15 colon,> 100 µM
same,TGI,HL-60(TB) leukemia,> 100 µM
same,TGI,HOP-62 NSCLC,> 100 µM
same,TGI,HOP-92 NSCLC,> 100 µM
same,TGI,HS 578T breast,> 100 µM
same,TGI,HT29 colon,> 100 µM
same,TGI,IGROV1 ovarian,> 100 µM
same,TGI,K-562 leukemia,> 100 µM
same,TGI,KM12 colon,> 100 µM
same,TGI,LOX IMVI melanoma,> 100 µM
same,TGI,M14 melanoma,> 100 µM
same,TGI,MCF7 breast,> 100 µM
same,TGI,MDA-MB-231 breast,> 100 µM
same,TGI,MDA-MB-435,> 100 µM
same,TGI,MDA-N,> 100 µM
same,TGI,MOLT-4 leukemia,> 100 µM
same,TGI,NCI-H226 lung,> 100 µM
same,TGI,NCI-H23 lung,> 100 µM
same,TGI,NCI-H522 lung,> 100 µM
same,TGI,NCI/ADR-RES ovarian,> 100 µM
same,TGI,OVCAR-3 ovarian,> 100 µM
same,TGI,OVCAR-5 ovarian,> 100 µM
same,TGI,OVCAR-8 ovarian,> 100 µM
same,TGI,PC-3 prostate,> 100 µM
same,TGI,RPMI-8226 leukemia,> 100 µM
same,TGI,RXF 393 renal,> 100 µM
same,TGI,SF-268 CNS,> 100 µM
same,TGI,SF-295 CNS,> 100 µM
same,TGI,SF-539 CNS,> 100 µM
same,TGI,SK-MEL-2 melanoma,> 100 µM
same,TGI,SK-MEL-5 melanoma,> 100 µM
same,TGI,SN12C renal,> 100 µM
same,TGI,SNB-19 CNS,> 100 µM
same,TGI,SNB-75 CNS,> 100 µM
same,TGI,SR leukemia,> 100 µM
same,TGI,SW-620 colon,> 100 µM
same,TGI,T-47D breast,> 100 µM
same,TGI,TK-10 renal,> 100 µM
same,TGI,U251 CNS,> 100 µM
same,TGI,UACC-257 melanoma,> 100 µM
same,TGI,UACC-62 melanoma,> 100 µM
same,TGI,UO-31 renal,> 100 µM
COC(=O)c1ccc(CCC2=CC(=O)C=CC2=O)cc1,TGI,786-0 renal,5.58 µM
same,TGI,A498 renal,32.9 µM
same,TGI,A549 NSCLC,60.5 µM
same,TGI,ACHN renal,20.4 µM
same,TGI,BT-549 breast,24.4 µM
same,TGI,CAKI-1 renal,13.6 µM
same,TGI,CCRF-CEM leukemia,2 µM
same,TGI,COLO 205 colon,26.6 µM
same,TGI,DU-145 prostate,33.8 µM
same,TGI,EKVX NSCLC,38.7 µM
same,TGI,HCC-2998 colon,30.8 µM
same,TGI,HCT-116 colon,25.9 µM
same,TGI,HCT-15 colon,23 µM
same,TGI,HL-60(TB) leukemia,4.79 µM
same,TGI,HOP-62 NSCLC,39.3 µM
same,TGI,HOP-92 NSCLC,25.1 µM
same,TGI,HS 578T breast,75.2 µM
same,TGI,HT29 colon,53.4 µM
same,TGI,IGROV1 ovarian,30.2 µM
same,TGI,K-562 leukemia,8.9 µM
same,TGI,KM12 colon,27 µM
same,TGI,LOX IMVI melanoma,24.2 µM
same,TGI,M14 melanoma,32.4 µM
same,TGI,MCF7 breast,30 µM
same,TGI,MDA-MB-231 breast,> 68.4 µM
same,TGI,MDA-MB-435,28 µM
same,TGI,MDA-N,27.6 µM
same,TGI,MOLT-4 leukemia,4.92 µM
same,TGI,NCI-H226 lung,48.3 µM
same,TGI,NCI-H23 lung,39.4 µM
same,TGI,NCI-H460 lung,35.9 µM
same,TGI,NCI-H522 lung,3.14 µM
same,TGI,NCI/ADR-RES ovarian,61.2 µM
same,TGI,OVCAR-3 ovarian,23.2 µM
same,TGI,OVCAR-4 ovarian,38.4 µM
same,TGI,OVCAR-5 ovarian,33.8 µM
same,TGI,OVCAR-8 ovarian,50.7 µM
same,TGI,PC-3 prostate,27.7 µM
same,TGI,RPMI-8226 leukemia,5.71 µM
same,TGI,RXF 393 renal,25.3 µM
same,TGI,SF-268 CNS,31.7 µM
same,TGI,SF-295 CNS,30.6 µM
same,TGI,SF-539 CNS,25.6 µM
same,TGI,SK-MEL-2 melanoma,30.4 µM
same,TGI,SK-MEL-28 melanoma,26 µM
same,TGI,SK-MEL-5 melanoma,30.2 µM
same,TGI,SN12C renal,> 55.9 µM
same,TGI,SNB-19 CNS,> 56.2 µM
same,TGI,SNB-75 CNS,32 µM
same,TGI,SR leukemia,5.82 µM
same,TGI,SW-620 colon,26.2 µM
same,TGI,T-47D breast,8.79 µM
same,TGI,TK-10 renal,33 µM
same,TGI,U251 CNS,24.8 µM
same,TGI,UACC-257 melanoma,22.5 µM
same,TGI,UACC-62 melanoma,29.3 µM
same,TGI,UO-31 renal,19.9 µM
